Assay results: paper PMC9921301, “Design, Synthesis, and Antiproliferative Activity of New 5-Chloro-indole-2-carboxylate and Pyrrolo[3,4-b]indol-3-one Derivatives as Potent Inhibitors of EGFR^T790M/BRAF^V600E Pathways” (Molecules, 2023)
Like-named read-outs stand apart in the source and are kept apart here.

Tests used:
EGFR^T790M [1] = target: T1, EGFR^T790M (Homo sapiens, UniProt P00533, T790M); settings: cited from earlier work
T1 construct: purchased Carna Bioscience

EGFR^L858R = test system: EGFR^L858R; design: method as in PMID 29758406; settings: cited from earlier work
c-MET = test system: c-MET; design: method as in PMID 29758406; settings: cited from earlier work
EGFR [2] = target: T2, EGFR (Homo sapiens, UniProt P00533); design: CD, amino acids 645–1186); His6 (N); made in house; host or cells: Sf-9 insect cells (baculovirus; pBlueBacHis2B / pFASTBacHTc; settings: cited from earlier work
T2 sequence (P00533 669-1210): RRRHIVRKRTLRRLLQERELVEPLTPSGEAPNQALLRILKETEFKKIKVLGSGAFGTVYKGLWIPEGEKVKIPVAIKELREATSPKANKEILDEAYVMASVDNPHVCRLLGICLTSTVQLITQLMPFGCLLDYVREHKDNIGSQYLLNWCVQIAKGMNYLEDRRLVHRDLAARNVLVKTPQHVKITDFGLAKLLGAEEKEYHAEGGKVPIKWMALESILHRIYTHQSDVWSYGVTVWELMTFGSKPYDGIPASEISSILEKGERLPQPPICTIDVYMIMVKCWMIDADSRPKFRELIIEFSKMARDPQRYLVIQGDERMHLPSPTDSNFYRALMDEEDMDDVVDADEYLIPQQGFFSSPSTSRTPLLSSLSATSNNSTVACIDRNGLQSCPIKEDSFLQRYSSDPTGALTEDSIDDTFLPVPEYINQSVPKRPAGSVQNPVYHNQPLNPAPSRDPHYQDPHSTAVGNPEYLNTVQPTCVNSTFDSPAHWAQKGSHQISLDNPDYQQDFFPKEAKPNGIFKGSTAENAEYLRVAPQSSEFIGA

four cancer cell lines = test system: four cancer cell lines; design: method as in PMID 32920363; settings: read-out: GI50 against four cancer cell lines; cited from earlier work
BRAF^V600E [3] = settings: cited from earlier work
[4] = test system: MCF-7 (breast cancer cell line); test: Antiproliferative assay, MCF-7; format: cell-based; settings: Homo sapiens, MCF7; read-out: Antiproliferative Activity IC50 ± SEM MCF-7
Procedure: (§1) For ease of manipulation, the average (GI50) versus the four cancer cell lines was used.
(§2) To investigate the antiproliferative potential of 3a–e, 4a–c, and 5a–c, the MTT assay was carried out using various cell lines in accordance with previously reported procedures. See Appendix SA (Supplementary Materials). […]
(§3) ethylenediamine tetra acetic acid (EDTA) was used to passage the cells after every 2-3 days. 96-well flat-bottomed cell culture plates were used to seed the cells at a density of 10^4 cells mL-1. The medium was aspirated from all the wells of culture plates after 24 h followed by the addition of synthesized compounds (in 200 μL medium to yield a final concentration of 0.1% (v/v) dimethylsulfoxide) into individual wells of the plates.
(§4) Four wells were designated to a single compound. The plates were allowed to incubate at 37°C for 96 h. Afterwards, the medium was aspirated and 3-[4,5-dimethylthiazol-2-yl]-2,5-diphenyltetrazolium bromide (MTT) (0.4 mg/mL) in medium was added to each well and subsequently incubated for 3 h. The medium was aspirated and 150 μL dimethyl sulfoxide (DMSO) was added to each well. The plates were vortexed followed by the measurement of absorbance at 540 nm on a microplate reader. The results were presented as inhibition (%) of proliferation in contrast to controls comprising 0.1% 4.2.1.2. Assay for antiproliferative effect
(§5) To explore the antiproliferative potential of compounds propidium iodide fluorescence assay was performed using different cell lines such as Panc-1 (pancreas cancer cell […]
(§6) (epithelial cancer cell line), respectively. To calculate the total nuclear DNA, a fluorescent dye (propidium iodide, PI) is used which can attach to the DNA, thus offering a quick and precise technique. PI cannot pass through the cell membrane and its signal intensity can be considered as directly proportional to quantity of cellular
(§7) DNA. Cells whose cell membranes are damaged or have changed permeability are counted as dead ones. The assay was performed by seeding the cells of different cell lines at a density of 3000-7500 cells/well (in200μl medium) in culture plates followed […]
(§8) The medium was removed; the compounds were added to the plates at 10 μM concentrations (in 0.1% DMSO) in triplicates, followed by incubation for 48h. DMSO (0.1%) was used as control. After incubation, medium was removed followed by the addition of PI (25 μl, 50μg/mL in water/medium) to each well of the plates. At -80 °C, the plates were allowed to freeze for 24 h, followed by thawing at 25 °C. A fluorometer (Polar-Star BMG Tech) was used to record the readings at excitation and emission wavelengths of 530 and 620 nm for each well. The percentage cytotoxicity of compounds was calculated using the following formula:
(§9) Where ATC= Absorbance of treated cells and AC= Absorbance of control. […]
(§10) was used as positive control in the assay. […]

[5] = Cell viability assay (MTT) on normal mammary epithelial cells; format: cell-based; settings: human, MCF-10A normal mammary gland epithelial cells, four days of incubation
Procedure: The viability test was performed on a normal human mammary gland epithelial cell line (MCF-10A). The MTT test was used to assess the viability of compounds 3a–e, 4a–c, and 5a–c.
The MTT assay was used to determine how the synthesized compounds affected the viability of mammary epithelial cells (MCF-10A). See Appendix SA (Supplementary Materials). […]
4.2. Biological evaluation
4.2.1. Cytotoxic activity using MTT Assay and evaluation of IC50
MTT assay was performed to investigate the effect of the synthesized compounds on mammary epithelial cells (MCF-10A). The cells were propagated in medium consisting of Ham's F-12 medium/ Dulbecco's modified Eagle's medium (DMEM) (1:1) supplemented with 10% foetal calf serum, 2 mM glutamine, insulin (10 μg/mL), hydrocortisone (500 ng/mL) and epidermal growth factor (20 ng/mL). Trypsin ethylenediamine tetra acetic acid (EDTA) was used to passage the cells after every 2-3 days. 96-well flat-bottomed cell culture plates were used to seed the cells at a density of 10^4 cells mL-1. The medium was aspirated from all the wells of culture plates after 24 h followed by the addition of synthesized compounds (in 200 μL medium to yield a final concentration of 0.1% (v/v) dimethylsulfoxide) into individual wells of the plates.
as §4, with “The results were presented as inhibition (%) of proliferation in contrast to controls comprising 0.1% 4.2.1.2. Assay for antiproliferative effect” left out

[6] = test system: Panc-1 (pancreatic cancer cell line); test: Antiproliferative assay, Panc-1; format: cell-based; settings: Homo sapiens, read-out: Antiproliferative Activity IC50 ± SEM Panc-1
Procedure: as §1, §2, §3, §4, §5, §6, §7, §8, §9, §10

[7] = test system: HT-29 (colon cancer cell line); test: Antiproliferative assay, HT-29; format: cell-based; settings: Homo sapiens, read-out: Antiproliferative Activity IC50 ± SEM HT-29
Procedure: as §1, §2, §3, §4, §5, §6, §7, §8, §9, §10

BRAF^V600E [8] = target: T3, BRAF^V600E (Mus musculus, UniProt P28028, V585E); test: V600E mutant BRAF kinase assay; format: biochemical; settings: read-out: BRAF^V600E Inhibition IC50 ± SEM
T3 construct: Mouse full-length GST-tagged; GST; purchased Invitrogen PV3849
T3 sequence (P28028 whole entry V585E): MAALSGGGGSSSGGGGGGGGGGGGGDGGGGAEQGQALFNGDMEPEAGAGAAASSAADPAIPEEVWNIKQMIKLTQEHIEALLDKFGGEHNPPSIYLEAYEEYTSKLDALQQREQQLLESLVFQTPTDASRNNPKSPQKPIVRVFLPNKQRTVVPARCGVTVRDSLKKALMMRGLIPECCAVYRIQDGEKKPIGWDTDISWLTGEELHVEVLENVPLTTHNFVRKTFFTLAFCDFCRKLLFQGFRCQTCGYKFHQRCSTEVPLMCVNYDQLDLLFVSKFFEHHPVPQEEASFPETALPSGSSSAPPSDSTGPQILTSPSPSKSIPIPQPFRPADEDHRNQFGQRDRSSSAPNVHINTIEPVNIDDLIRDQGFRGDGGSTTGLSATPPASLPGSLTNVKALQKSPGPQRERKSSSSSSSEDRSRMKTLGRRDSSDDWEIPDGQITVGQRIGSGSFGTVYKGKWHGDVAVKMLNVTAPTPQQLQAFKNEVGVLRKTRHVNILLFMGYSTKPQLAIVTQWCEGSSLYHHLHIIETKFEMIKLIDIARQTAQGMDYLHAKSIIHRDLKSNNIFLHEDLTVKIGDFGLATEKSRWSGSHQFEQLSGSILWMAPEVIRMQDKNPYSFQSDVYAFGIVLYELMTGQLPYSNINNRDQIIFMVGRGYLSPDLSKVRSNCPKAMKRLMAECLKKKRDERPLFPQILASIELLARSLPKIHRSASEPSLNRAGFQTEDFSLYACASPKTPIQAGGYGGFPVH
Procedure: V600E mutant BRAF kinase assay was performed to investigate the activity of […]
Mouse full-length GST-tagged
BRAFV600E (7.5 ng, Invitrogen, PV3849) was pre -incubated with drug (1 µL) and assay dilution buffer (4 µL) for 6 0 min at 25 °C. In assay dilution buffer, a solution (5 µL) containing MgCl2 (30 mM), ATP (200 µM), recombinant human full length (200 ng) […] N-terminal His-tagged MEK1 (Invitrogen) was added to start the assay, after incubation for 25 min at 25 °C. The assay was stopped using 5X protein denaturing buffer (LDS) solution (5 µL). To further denature the protein, heat (70° C) was applied […]
electrophoresis (at 200 V). 10 µL of each reaction was loaded into the precast plates and electrophoresis was allowed to proceed. After completion of electrophoresis, the front part of the precast gel plate (holding hot ATP) was cut and afterwards cast -off.
The dried gel was developed using a phosphor screen. […]
Computerized Prism 5 program was used to statistically analyzed data using one-way ANOVA test followed by Tukey’s as post ANOVA for multiple comparison at P ≤.05.
Data were presented as mean ± SEM.

EGFR [9] = target: T2, EGFR; test: EGFR-TK inhibitory assay
EGFR^T790M [10] = target: T1, EGFR^T790M; test: EGFR^T790M inhibitory assay (HTRF KinEASE-TK); format: biochemical; settings: for IC50: HTRF KinEASE-TK, read-out: EGFR^T790M Inhibition IC50 ± SEM
Procedure: Osimertinib served as the positive control.
EGFRT790M inhibitory assay
The EGFR protein (EGFRT790M) was purchased from Carna Bioscience. The HTRF KinEASE-TK kit (Cat#62TK0PEB) was from Cisbio. All the other chemicals were […]
low volume, black, NBS), using Cisbio HTRF KinEASE -TK kit. The assay buffer contained 50 mM HEPES (Ph 7.0), 0.02% NaN3, 0.01% BSA, 0.1 mM Orthovanadate, […]
EGFR kinases was first incubated with compounds for 2 h respectively, then ATP/Peptide substrate mixture was added to initiate the reaction. After 30 min reaction at room temperature, the detection reagents were added. The TR-FRET signal was measured on PerkinElmer Envision using […]
The data was analyzed using Graph
Pad Prism (Version 6.0) software after three parallel experiments. […]

[11] = test system: A-549 (epithelial cancer cell line); test: Antiproliferative assay, A-549; format: cell-based; settings: Homo sapiens, A549; read-out: Antiproliferative Activity IC50 ± SEM A-549
Procedure: as §1, §2, §3, §4, §5, §6, §7, §8, §9, §10

[12] = test system: four human cancer cell lines (Panc-1, MCF-7, HT-29, A-549); test: Antiproliferative assay, average (GI50) versus the four cancer cell lines; format: cell-based; settings: Homo sapiens; average versus the four cancer cell lines
Procedure: as §1, §2, §3, §4, §5, §6, §7, §8, §9, §10

[13] = test system: LOX-IMVI melanoma cell line; test: LOX-IMVI melanoma cell line cytotoxicity assay (MTT); format: cell-based; settings: Homo sapiens, 5-dose concentrations, read-out: LOX-IMVI Melanoma IC50 ± SEM
Procedure: The IC50 values of the test compounds were determined at 5-dose concentrations, with staurosporine serving as a control.
The anticancer activity of the synthesized derivatives was determined using the MTT cytotoxicity assay on LOX-IMVI melanoma cell line. See Appendix SA (Supplementary Materials).

T1 sequence (P00533 25-1210 T790M): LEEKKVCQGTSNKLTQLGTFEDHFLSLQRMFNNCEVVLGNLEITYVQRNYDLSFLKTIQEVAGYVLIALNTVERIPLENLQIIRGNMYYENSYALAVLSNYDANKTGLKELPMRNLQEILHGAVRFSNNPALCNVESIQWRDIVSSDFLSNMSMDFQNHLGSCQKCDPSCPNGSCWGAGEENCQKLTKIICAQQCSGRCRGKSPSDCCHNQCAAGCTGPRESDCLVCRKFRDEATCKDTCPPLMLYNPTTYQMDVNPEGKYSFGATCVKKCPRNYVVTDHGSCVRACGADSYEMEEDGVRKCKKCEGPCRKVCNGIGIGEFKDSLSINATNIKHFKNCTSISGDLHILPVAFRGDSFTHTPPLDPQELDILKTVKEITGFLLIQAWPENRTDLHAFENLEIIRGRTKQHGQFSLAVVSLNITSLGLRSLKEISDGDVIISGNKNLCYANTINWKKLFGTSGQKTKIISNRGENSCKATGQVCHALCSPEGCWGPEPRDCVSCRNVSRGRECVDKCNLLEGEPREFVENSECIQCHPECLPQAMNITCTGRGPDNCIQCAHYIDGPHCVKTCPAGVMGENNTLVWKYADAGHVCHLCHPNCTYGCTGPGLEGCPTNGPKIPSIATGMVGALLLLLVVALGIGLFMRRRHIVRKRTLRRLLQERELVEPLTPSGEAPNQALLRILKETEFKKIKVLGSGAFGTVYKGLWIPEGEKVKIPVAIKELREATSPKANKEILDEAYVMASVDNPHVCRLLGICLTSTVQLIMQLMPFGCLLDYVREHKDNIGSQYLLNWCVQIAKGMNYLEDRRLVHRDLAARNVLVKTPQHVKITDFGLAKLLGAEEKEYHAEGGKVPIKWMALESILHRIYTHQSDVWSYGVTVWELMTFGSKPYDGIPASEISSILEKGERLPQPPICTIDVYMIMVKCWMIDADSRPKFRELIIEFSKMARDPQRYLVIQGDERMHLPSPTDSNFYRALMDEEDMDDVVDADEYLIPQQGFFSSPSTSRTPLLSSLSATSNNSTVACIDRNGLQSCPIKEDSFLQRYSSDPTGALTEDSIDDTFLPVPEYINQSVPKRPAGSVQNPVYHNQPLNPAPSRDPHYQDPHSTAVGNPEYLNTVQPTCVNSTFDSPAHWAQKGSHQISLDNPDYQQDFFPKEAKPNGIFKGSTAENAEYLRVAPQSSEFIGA

IC50 [4] [nM] | IC50 [6] [nM] | IC50 [7] [nM] | IC50 (BRAF^V600E [8]) [nM] | IC50 (EGFR [9]) [nM] | selectivity index toward EGFR^T790M protein over wild-type EGFR (EGFR^T790M [10]) [fold] | IC50 (EGFR^T790M [10]) [nM] | IC50 [11] [nM] | GI50 [12] [nM] | fold more potent than erlotinib (EGFR IC50) (EGFR [9]; relative to erlotinib IC50 = 80 nM) [fold] | SMILES | IC50 (EGFR^T790M [1]) [nM] | IC50 (EGFR^L858R) [nM] | IC50 (c-MET) [nM] | IC50 (EGFR [2]) [nM] | GI50 (four cancer cell lines) [nM] | IC50 (BRAF^V600E [3]) [nM] | viability at 96 h, 50 µM [5] [%] | IC50 [13] [nM]
 |  |  |  |  |  |  |  |  |  | CCc1ccc(Cn2cc(-c3cc(-c4ccc(Br)cc4)nc(N)n3)c3ccccc32)cc1 [Compound II] | 94 | 99 | 595 |  |  |  |  | 
 |  |  |  |  |  |  |  |  |  | Cc1c2n(c3ccc(Cl)cc13)C(=O)CN(CCc1ccc(N3CCOCC3)cc1)C2=O [Compound VI] |  |  |  | 80 | 1110 | 150 |  | 
32 ± 3 | 30 ± 3 | 32 ± 3 | 39 ± 3 | 74 ± 5 | 8 | 9.2 ± 2 | 30 ± 3 | 31 |  | CCOC(=O)c1[nH]c2ccc(Cl)cc2c1CNCCc1ccc(N2CCCC2)cc1 [Compound 3b, Ethyl 5-chloro-3-((4-(pyrrolidin-1-yl)phenethylamino)methyl)-1H-indole-2-carboxylate] |  |  |  |  |  |  | 91 | 1120 ± 10
30 ± 3 | 29 ± 3 | 30 ± 3 | 35 ± 3 | 68 ± 5 | 8 | 8.6 ± 2 | 27 ± 2 | 29 | 1.2 | CCOC(=O)c1[nH]c2ccc(Cl)cc2c1CNCCc1cccc(N2CCCCC2)c1 [Compound 3e, Ethyl 5-chloro-3-((3-(piperidin-1-yl)phenethylamino)methyl)-1H-indole-2-carboxylate] |  |  |  |  |  |  | 92 | 960 ± 10
